Twelve molecules from PubChem BioAssay (NCI) can be followed below.

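Exposure lasted 48 hours, with cells grown in 96-well plates and compounds tested at five concentrations. TGI marks complete inhibition of growth.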 Bounds are passed on as bounds.

Among the test systems are ACHN renal; COLO 205 colon; DMS 114 small cell lung; HT29 colon; K-562 leukemia; KM20L2 colon; OVCAR-3 ovarian; SF-268 CNS; SK-MEL-2 melanoma; SNB-75 CNS; UACC-257 melanoma; XF 498 CNS; DU-145 prostate; MCF7 breast; MDA-N.
Holding throughout (assay): NCI tumour cell line growth inhibition, 48 h

For the molecule `COc1ccc(OC2(c3cc(OC)ccc3OC)OC(=O)c3ccccc32)cc1` (stereo not given), the TGI in the assay with ACHN renal, in the assay with COLO 205 colon, in the assay on DMS 114 small cell lung, with HT29 colon, in the assay with K-562 leukemia and in the assay on KM20L2 colon was above 100 µM in each case. Besides, the TGI in the assay on OVCAR-3 ovarian, with SF-268 CNS, in the assay with SK-MEL-2 melanoma, in the assay with SNB-75 CNS and in the assay on UACC-257 melanoma was above 100 µM in each case.
Take `Cc1cc(N(CCC#N)CCC#N)ccc1/C=C1N=C(/C=C\c2ccccc2)N(NC(=O)CC(=O)Nc2ccccc2Cl)C\1=O`: the TGI in the assay with ACHN renal, in the assay with COLO 205 colon, with DMS 114 small cell lung, in the assay with HT29 colon, with K-562 leukemia and in the assay on KM20L2 colon was above 100 µM each time. For the same molecule, the TGI in the assay with OVCAR-3 ovarian, in the assay with SF-268 CNS, in the assay with SK-MEL-2 melanoma, in the assay on SNB-75 CNS and with UACC-257 melanoma was above 100 µM throughout.
For `NC(=O)N/N=C(\CC1OC(=O)c2ccccc21)c1ccc([N+](=O)[O-])cc1` (stereo not given), the TGI in the assay with ACHN renal was above 100 µM; in the assay on COLO 205 colon, above 100 µM; in the assay with HT29 colon it was above 100 µM; in the assay on KM20L2 colon, 96.2 µM; with OVCAR-3 ovarian, above 100 µM; with SK-MEL-2 melanoma it was 35.4 µM. For the same molecule, the figures for the TGI in the assay on SNB-75 CNS, with UACC-257 melanoma and in the assay with XF 498 CNS were 78.6 µM, above 100 µM and above 100 µM, respectively.
With `Cc1cccc2c(N)c3cccc(C(=O)NCC[N+](C)(C)Cc4ccccc4[N+](=O)[O-])c3nc12`, the TGI with ACHN renal is 13.9 µM; in the assay with COLO 205 colon, above 39.7 µM; with DU-145 prostate, above 100 µM; in the assay with HT29 colon it was 19.8 µM; in the assay on K-562 leukemia it was above 31.8 µM; in the assay on MCF7 breast it was above 100 µM. In addition, the TGI in the assay on MDA-N is above 41.4 µM; with OVCAR-3 ovarian, above 91.4 µM; with SF-268 CNS, above 35.2 µM; in the assay on SK-MEL-2 melanoma, above 54.6 µM; in the assay with SNB-75 CNS, 8.82 µM; in the assay with UACC-257 melanoma, above 70.7 µM.
Consider `COc1cc([C@@H]2c3cc4c(cc3[C@@H](NCc3ccccc3F)C3COC(=O)[C@@H]32)OCO4)cc(OC)c1O` (stereo not given in full), for which the TGI is 4.28 µM with ACHN renal; 77.4 µM with COLO 205 colon; 28.3 µM with DMS 114 small cell lung; 25.5 µM with HT29 colon; 35.4 µM in the assay on K-562 leukemia; 8.65 µM in the assay with KM20L2 colon. The TGI in the assay with OVCAR-3 ovarian was 40.9 µM; with SF-268 CNS, above 100 µM; in the assay with SK-MEL-2 melanoma, 49.8 µM; with SNB-75 CNS, 42.6 µM; with UACC-257 melanoma, 37.2 µM.
With `Cn1c(=O)c2c(nc3n2CCCC(=O)N3CCCCl)n(C)c1=O`, the TGI in the assay with ACHN renal, in the assay on COLO 205 colon, in the assay on DU-145 prostate, in the assay on HT29 colon, in the assay on K-562 leukemia and in the assay with MCF7 breast was above 100 µM in each case. In addition, the TGI in the assay with MDA-N, in the assay on OVCAR-3 ovarian, in the assay with SF-268 CNS, in the assay with SK-MEL-2 melanoma, in the assay on SNB-75 CNS and with UACC-257 melanoma was above 100 µM each time.
As to `O=C1c2ccccc2CC12Cc1cc3c(cc1C2)CCC3`, the TGI in the assay with ACHN renal was above 100 µM; in the assay on COLO 205 colon, above 100 µM; with DU-145 prostate it was above 100 µM; in the assay on HT29 colon, 62.1 µM; in the assay with K-562 leukemia, above 100 µM; in the assay with MCF7 breast it was above 100 µM. Also, the TGI is above 100 µM with MDA-N; above 100 µM in the assay with OVCAR-3 ovarian; above 100 µM in the assay with SF-268 CNS; above 100 µM in the assay on SK-MEL-2 melanoma; above 100 µM in the assay with SNB-75 CNS; 91.3 µM in the assay with UACC-257 melanoma.
For the molecule `CCCCCCCCCCC/C=C(/C(=O)CCCO[Si](C)(C)C(C)(C)C)C(=O)OC`, the TGI with ACHN renal, in the assay on COLO 205 colon, with DU-145 prostate, in the assay on HT29 colon, in the assay on K-562 leukemia and with MCF7 breast was above 100 µM each time. In addition, the TGI in the assay with MDA-N, with OVCAR-3 ovarian, in the assay on SF-268 CNS, with SK-MEL-2 melanoma, with SNB-75 CNS and with UACC-257 melanoma was above 100 µM throughout.
Take `CC(=O)OCC12CC(CC1OC(C)=O)c1ccccc12` (stereo not given): the TGI with ACHN renal, in the assay with COLO 205 colon, in the assay on DMS 114 small cell lung, in the assay with HT29 colon, in the assay on K-562 leukemia and in the assay with KM20L2 colon was above 100 µM throughout. The TGI in the assay with OVCAR-3 ovarian, in the assay on SF-268 CNS and with UACC-257 melanoma was above 100 µM throughout.
Consider `CCS1=C2C(=O)CC(C)(C)CC2=Nc2ccccc21` (stereo not given), for which the TGI in the assay with ACHN renal, in the assay on COLO 205 colon, in the assay with DU-145 prostate, in the assay with HT29 colon, with K-562 leukemia and in the assay on MCF7 breast was above 100 µM throughout. For the same molecule, the TGI in the assay on MDA-N, with OVCAR-3 ovarian, with SF-268 CNS, with SK-MEL-2 melanoma, in the assay with SNB-75 CNS and in the assay with UACC-257 melanoma was above 100 µM in each case.
As for `CC(NNC(=O)c1ccncc1)c1ccccc1` (stereo not given), the TGI with ACHN renal, in the assay on COLO 205 colon, with DU-145 prostate, with HT29 colon, with K-562 leukemia and with MCF7 breast was above 100 µM throughout. The TGI in the assay with MDA-N, in the assay with OVCAR-3 ovarian, in the assay on SF-268 CNS, with SK-MEL-2 melanoma, in the assay on SNB-75 CNS and in the assay on UACC-257 melanoma was above 100 µM throughout.
`O=C(NC(CS)C(=O)O)c1c2ccccc2nc2ccccc12` (stereo not given): the TGI in the assay with ACHN renal is above 100 µM; with COLO 205 colon it was 23.5 µM; with DU-145 prostate, above 100 µM; in the assay on HT29 colon, above 100 µM; in the assay with K-562 leukemia it was above 100 µM; with MCF7 breast, above 100 µM. Besides, the TGI in the assay on MDA-N, in the assay on OVCAR-3 ovarian, with SF-268 CNS, with SK-MEL-2 melanoma, with SNB-75 CNS and with UACC-257 melanoma was above 100 µM in each case.
